Assay results from US20170333459A1 (priority 2010, published 2017).
Several values for one entry are separate records, joined by “and”; a condition that tells them apart may be missing. Equal values may be shown once.

Key:
hOAT3 [1] = biological target: T1, hOAT3 (Homo sapiens, UniProt Q8TCC7); set-up: host or cells: MDCK-II cells, transiently transfected; details: reported for hOAT3-mediated uptake; cited from earlier work
T1 sequence (Q8TCC7 1-542): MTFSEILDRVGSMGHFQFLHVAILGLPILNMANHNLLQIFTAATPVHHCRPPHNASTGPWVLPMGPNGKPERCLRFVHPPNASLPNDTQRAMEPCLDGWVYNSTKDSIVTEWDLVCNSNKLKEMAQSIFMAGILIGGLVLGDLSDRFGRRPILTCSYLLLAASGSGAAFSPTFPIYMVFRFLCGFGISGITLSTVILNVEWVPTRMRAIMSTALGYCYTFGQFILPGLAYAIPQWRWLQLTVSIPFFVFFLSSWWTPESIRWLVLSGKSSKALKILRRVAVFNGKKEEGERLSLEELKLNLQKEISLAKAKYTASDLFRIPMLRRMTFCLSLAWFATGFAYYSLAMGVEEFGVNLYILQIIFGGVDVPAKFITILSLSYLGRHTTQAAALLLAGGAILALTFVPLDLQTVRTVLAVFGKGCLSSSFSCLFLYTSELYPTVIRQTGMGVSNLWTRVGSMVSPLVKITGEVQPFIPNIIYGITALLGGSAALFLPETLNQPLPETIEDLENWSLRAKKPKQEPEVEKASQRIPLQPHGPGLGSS

[2] = biological target: T2, human Organic Anion Transporter 1 (hOAT1) (Homo sapiens, UniProt Q4U2R8)
T2 sequence (Q4U2R8 1-563): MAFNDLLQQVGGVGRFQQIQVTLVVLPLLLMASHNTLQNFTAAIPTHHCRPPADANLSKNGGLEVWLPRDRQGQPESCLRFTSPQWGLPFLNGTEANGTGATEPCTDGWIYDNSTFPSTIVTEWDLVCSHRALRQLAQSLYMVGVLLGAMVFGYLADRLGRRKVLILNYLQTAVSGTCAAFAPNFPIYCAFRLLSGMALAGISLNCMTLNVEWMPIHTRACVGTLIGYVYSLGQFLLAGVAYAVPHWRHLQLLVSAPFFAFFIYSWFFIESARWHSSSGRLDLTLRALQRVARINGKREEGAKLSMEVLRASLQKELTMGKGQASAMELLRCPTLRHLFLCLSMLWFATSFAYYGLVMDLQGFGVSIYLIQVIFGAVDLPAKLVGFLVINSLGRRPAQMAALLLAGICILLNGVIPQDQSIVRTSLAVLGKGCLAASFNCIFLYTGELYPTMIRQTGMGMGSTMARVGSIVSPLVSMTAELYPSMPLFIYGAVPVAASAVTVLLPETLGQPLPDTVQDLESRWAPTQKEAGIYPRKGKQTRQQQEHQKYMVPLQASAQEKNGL

hOAT3 [3] = biological target: T1, hOAT3; details: MDCK
monkeypox virus = details: monkey, in vivo, iv, 20 mg/kg; cited from earlier work
rabbitpox virus = system: rabbitpox virus; set-up: species or system rabbits; details: rabbit, in vivo
variola virus = details: read-out: in vitro potency; cited from earlier work
[4] = human, in vivo, po
vaccinia virus = system: vaccinia virus; set-up: species or system human; details: in vivo
[5] = human, in vivo, po; remark: listed apart in the source

| SMILES | lower uptake efficiency (Vmax/Km) (hOAT3 [1]) | Uptake (Transporter) ([2]; 5 min) | net uptake in hOAT1 expressing cells ([2]; MDCK) | uptake in the presence of OAT inhibitor probenecid ([2]; MDCK) | net uptake in hOAT3 expressing cells (hOAT3 [3]) | survivors (monkeypox virus) | effective single dose (rabbitpox virus) | preventing mortality (rabbitpox virus) | survivors (rabbitpox virus; 20 mg/kg) | effect of 20% serum on uptake ([2]; MDCK) | substrate for hOAT1 ([2]; MDCK) | Net Transporter Uptake ([2]; human, MDCK) | EC50 (variola virus) | nephrotoxicity [4] | substrate for hOAT3 (hOAT3 [3]) | clinical outcome of progressive vaccinia (vaccinia virus) | ST-246 levels [5] |
| --- | --- | --- | --- | --- | --- | --- | --- | --- | --- | --- | --- | --- | --- | --- | --- | --- | --- |
| Nc1ccn(C[C@@H](CO)OCP(=O)(O)O)c(=O)n1 [CDV, cidofovir] | > 100 fold | 116 ± 22 pmol/min/cm^2 and 117 ± 15 pmol/min/cm^2 | enhanced | decreased | not enhanced | 7/8 |  |  |  |  |  |  |  |  |  |  |  |
| CCCCCCCCCCCCCCCCOCCCOP(=O)(O)CO[C@H](CO)Cn1ccc(N)nc1=O [CMX001, 1-O-hexadecyloxypropyl cidofovir] |  |  | not enhanced |  | not enhanced |  | 20 mg/kg | effective in preventing mortality | 11/12 | substantially reduced | not a substrate | −0.3 ± 5.4 pmol/min/cm^2 | 100 nM | no signs of nephrotoxicity have been observed | not a substrate | improvement of progressive vaccinia |  |
| O=C(NN1C(=O)[C@@H]2[C@@H]3C=C[C@@H]([C@H]4C[C@@H]34)[C@@H]2C1=O)c1ccc(C(F)(F)F)cc1 [ST-246, reference compound] |  |  |  |  |  |  |  |  |  |  |  |  |  |  |  | improvement of progressive vaccinia | lower |
